Measured values taken from EP0936867B1, “BENZOYLPHENYLUREA INSECTICIDES AND METHODS OF USING CERTAIN BENZOYLPHENYLUREAS TO CONTROL COCKROACHES, ANTS, FLEAS, AND TERMITES” (Dow AgroSciences LLC, priority 1996, dated 1998).

Legend:
Type in all cases: in vivo
[1] = system: German cockroach 2nd instars (Blattella germanica); test: Continuous, low-dose ingestion exposure (treated cornmeal)
[2] = system: German cockroach 2nd instars (Blattella germanica); test: Limited ingestion exposure (48 hr) to treated cornmeal
Text: German cockroach 2nd instars (Blattella germanica)
Limited ingestion exposure (48 hr) to treated cornmeal Rates: 1, 10, 100, 1000, 10000 ppm

[3] = system: Cat Flea (Ctenocephalides fells); test: Continuous exposure of larvae to treated media, impact on subsequent adult emergence
Text: Cat Flea (Ctenocephalides fells)
Continuous exposure of larvae to treated media, impact on subsequent adult emergence Rates: 0.1, 1.0, 10, 100, 1000 ppm

[4] = system: Subterranean Termite (Reticulitermes flavipes); test: Continuous exposure (56 days) to treated paper
Text: (§1) Subterranean Termite (Reticulitermes flavipes)
Continuous exposure (56 days) to treated paper Rates: 0.78, 3.12, 12.5, 50, 200 ppm

[5] = system: Subterranean Termite (Reticulitermes flavipes); test: Limited exposure (7 days), mortality determined at 14, 28, 42 and 56 days
Text: as §1
Limited exposure (7 days) with mortality determined at 14, 28, 42, and 56 […]

[6] = system: Pharaoh Ant (Monomorium pharaonis); test: Laboratory ant bait study, 3-4 day exposure to bait, brood reduction; conditions: concentration tested 0.1%
Method: (§2) Laboratory ant bait studies were carried out with Red Imported Fire Ant (RIFA) (Solenopsis invicta) and Pharaoh Ant (Monomorium pharaonis). Chitin synthesis inhibitors, such as the compounds of the invention, control ants by killing the molting larvae and/or pupae and potentially preventing the hatching of eggs. Because adult workers are not affected, control is measured by effects on the brood. The studies involved 3-4 day exposure to bait. These limited exposure studies more accurately represent real world bait availability than continuous exposure.

[7] = system: Red Imported Fire Ant (RIFA) (Solenopsis invicta); test: as above
Method: as §2

Daphnia = test: Activity against Daphnia, 48 hr exposure to treated water
Text: 48 hr exposure to treated water

Row | Structure (SMILES) | LC50 (ppm) 21 days [1] | LC50 (ppm) 42 days [1] | LC50 (ppm) 21 days [2] | LC50 (ppm) 42 days [2] | LC50 (ppm) [3] | LC90 (ppm) [3] | LT50 (days) for 200 ppm trt [4] | LC50 (ppm) 35 days [4] | LC50 (ppm) 56 days [4] | LT50 (days) for 10000 ppm treatment [5] | Time to Achieve 50% Brood Reduction ([6]; 3-4 day exposure to bait) | Percent brood reduction achieved at end of study ([6]; at 13 wks) | Time to Achieve 50% Brood Reduction ([7]; concentration tested 0.1%) | Time to Achieve 90% Brood Reduction ([7]; concentration tested 0.1%) | LC50 (ppb) in water (Daphnia) | Time to Achieve 50% Brood Reduction ([7]; concentration tested 0.25%) | Time to Achieve 90% Brood Reduction ([7]; concentration tested 0.25%)
1 | O=C(NC(=O)c1c(F)cccc1F)Nc1cc(Cl)c(OC(F)(F)C(F)C(F)(F)F)c(Cl)c1F (stereo not drawn) [Compound 1] | < 2.2 ppm | <0.78 ppm | < 22.2 ppm | < 9.1 ppm | 2.8 ppm | 22 ppm | 27.6 days | 31.2 ppm | < 0.78 ppm | 23.7 days | 4 wks | 70% | 2 wks | 3 wks | 5.0 ppb | – | –
2 | CCN(C(=O)NC(=O)c1c(F)cccc1F)c1cc(Cl)c(OC(F)(F)C(F)C(F)(F)F)c(Cl)c1F (stereo not drawn) [Compound 2, N-[3,5-Dichloro-2-fluoro-4-(1,1,2,3,3,3-hexafluoropropoxy)phenyl]-N'-(2,6-difluorobenzoyl)-N-ethylurea] | 0.35 ppm | 0.26 ppm | 21.1 ppm | 12.8 ppm | 12.7 ppm | 18.6 ppm | – | < 0.78 ppm | < 0.78 ppm | – | – | – | – | – | – | – | –
3 | CCN(C(=O)Nc1cc(Cl)c(OC(F)(F)C(F)C(F)(F)F)c(Cl)c1F)C(=O)c1c(F)cccc1F (stereo not drawn) [Compound 3, N-[3,5-Dichloro-2-fluoro-4-(1,1,2,3,3,3-hexafluoropropoxy)phenyl]-N'-(2,6-difluorobenzoyl)-N'-ethyl urea] | 8.0 ppm | 1.5 ppm | – | – | – | – | – | – | – | – | – | – | – | – | > 100 ppb | – | –
4 | O=C(NC(=O)c1c(F)cccc1F)Nc1cc(Cl)c(OC(F)(F)C(F)F)c(Cl)c1 [hexaflumuron, reference compound] | > 200 ppm | > 200 ppm | > 10,000 ppm | > 10,000 ppm | 65.7 ppm | 333.5 ppm | 33.8 days | > 200 ppm | 1.3 ppm | 32.9 days | – | – | – | – | 68.1 ppb | 4 wks | 10 wks
